Numbers after ± are expanded uncertainties.
Assay: refractive index (Na D-line) (dimensionless); xn = mol fraction of the nth substance listed
Conditions: 94.64 kPa, Liquid, Standard Abbe refractometry

CC(O)CO (stereo unspecified) [1,2-propanediol] + OCCCO
x1 = 1
Conditions	refractive index
293.15 K	1.43219 ± 0.002
298.15 K	1.4303 ± 0.002
303.15 K	1.42921 ± 0.002
308.15 K	1.42746 ± 0.002
313.15 K	1.42566 ± 0.002
318.15 K	1.42386 ± 0.002

OCCCO [propan-1,3-diol] + CC(O)CO
refractive index
Conditions	x2 = 0	x2 = 0.0985	x2 = 0.2023	x2 = 0.3015	x2 = 0.3961	x2 = 0.5009	x2 = 0.5961	x2 = 0.6965	x2 = 0.7974	x2 = 0.8985
293.15 K	1.43932 ± 0.002	1.43907 ± 0.002	1.43879 ± 0.002	1.43838 ± 0.002	1.4378 ± 0.002	1.43695 ± 0.002	1.436 ± 0.002	1.43508 ± 0.002	1.4342 ± 0.002	1.4331 ± 0.002
298.15 K	1.43796 ± 0.002	1.4376 ± 0.002	1.43721 ± 0.002	1.43671 ± 0.002	1.43612 ± 0.002	1.43533 ± 0.002	1.43455 ± 0.002	1.43364 ± 0.002	1.43275 ± 0.002	1.43161 ± 0.002
303.15 K	1.43665 ± 0.002	1.43619 ± 0.002	1.43572 ± 0.002	1.43521 ± 0.002	1.43459 ± 0.002	1.4339 ± 0.002	1.43318 ± 0.002	1.4321 ± 0.002	1.4311 ± 0.002	1.43017 ± 0.002
308.15 K	1.43523 ± 0.002	1.43478 ± 0.002	1.43424 ± 0.002	1.43377 ± 0.002	1.43324 ± 0.002	1.43241 ± 0.002	1.43161 ± 0.002	1.43076 ± 0.002	1.42967 ± 0.002	1.42858 ± 0.002
313.15 K	1.43385 ± 0.002	1.4333 ± 0.002	1.43276 ± 0.002	1.43207 ± 0.002	1.43145 ± 0.002	1.43061 ± 0.002	1.43 ± 0.002	1.42906 ± 0.002	1.42818 ± 0.002	1.42699 ± 0.002
318.15 K	1.43255 ± 0.002	1.43195 ± 0.002	1.43131 ± 0.002	1.43057 ± 0.002	1.42992 ± 0.002	1.42921 ± 0.002	1.42848 ± 0.002	1.42752 ± 0.002	1.42653 ± 0.002	1.42545 ± 0.002
